Measurements reported in US20260085071A1, “NOVEL CRYSTALLINE FORM OF 1-(8-BROMOPYRIDO[2,3- E][1,2,4]TRIAZOLO[4,3-A]PYRAZIN-4-YL)-NMETHYLAZETIDIN- 3-AMINE” (JW PHARMACEUTICAL CORPORATION, priority 2022, published 2026).

Columns and labels:
[1] = system: inflammatory cells such as mast cells and eosinophils; conditions: background statement, U.S. Pat. No. 9,586,959; cited from earlier work
histamine 4 receptor = histamine 4 receptor (Homo sapiens, UniProt Q9H3N8); conditions: background statement, U.S. Pat. No. 9,586,959; cited from earlier work
histamine 4 receptor, sequence (Q9H3N8 whole entry): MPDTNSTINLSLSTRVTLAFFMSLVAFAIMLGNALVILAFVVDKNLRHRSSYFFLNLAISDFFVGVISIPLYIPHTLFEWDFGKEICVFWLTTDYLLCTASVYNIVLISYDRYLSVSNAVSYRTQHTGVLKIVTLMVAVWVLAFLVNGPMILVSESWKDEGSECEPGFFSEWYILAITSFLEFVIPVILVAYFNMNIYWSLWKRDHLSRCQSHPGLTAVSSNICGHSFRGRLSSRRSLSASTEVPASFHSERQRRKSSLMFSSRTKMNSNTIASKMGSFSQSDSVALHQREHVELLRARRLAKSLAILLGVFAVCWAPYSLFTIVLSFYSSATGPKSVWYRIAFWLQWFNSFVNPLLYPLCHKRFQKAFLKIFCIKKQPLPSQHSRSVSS

[2] = Stability of polymorphic form during gentle drying; format: physicochemical; conditions: pure polymorphic forms from crystallization experiments
[3] = Stress testing at high temperature and high humidity; format: physicochemical; conditions: high temperature (60° C.) and high humidity (75%) for 4 weeks
[4] = Thermodynamic (thermal) stability of crystalline form; format: physicochemical; conditions: solid crystalline form
Description: TGA experiments were conducted using a TGA550 instrument from TA Instruments. About 1-10 mg of sample was loaded into a ceramic pan for the measurements. The sample temperature was ramped from 25 to 500° C. at 10° C./min. Nitrogen was used as the purge gas at a flow rate of 50 mL/min.
DSC: Heating rate of 10° C./min under a nitrogen atmosphere. About 1-2 mg of sample was loaded into an open aluminum pan for the measurements. Instrument Q20 from TA Instruments.

SMILES	effects against histamine induced infiltration of inflammatory cells [1]	histamine 4 receptor inhibitory effect (histamine 4 receptor)	stability during gentle drying [2]	stability during stress testing [3]	thermodynamically stable up to [4]
CNC1CN(c2nc3ncc(Br)cc3n3cnnc23)C1 [1-(8-bromopyrido[2,3-e][1,2,4]triazolo[4,3-a]pyrazin-4-yl)-N-methylazetidin-3-amine]	suppressive effects	strong			
CNC1CN(c2nc3ncc(Br)cc3n3cnnc23)C1 [Form A, 1-(8-bromopyrido[2,3-e][1,2,4]triazolo[4,3-a]pyrazin-4-yl)-N-methylazetidine-3-amine]			stable	stable	up to 273 °C
